Earlier results, collected in patent US20250369985A1, “METHOD FOR DETERMINING THE THERAPEUTIC REGIMEN FOR AN INDIVIDUAL AND ITS USE” (MOSAIQUES DIAGNOSTICS AND THERAPEUTICS AG, priority 2022, published 2025).
Where two headings read alike, the source gives them in different places.

Test system: urinary proteins/peptides (71 biomarkers of CD71 classifier)

Measured: f (fold-change of the abundance)

Cc1ccc([C@@H]2O[C@H](CO)[C@@H](O)[C@H](O)[C@H]2O)cc1Cc1ccc(-c2ccc(F)cc2)s1 [drug C]
1.33: peptide 99911559 (Seq. ID No. 32)
0.64: peptide 99914445 (Seq. ID No. 43)
0.63: peptide 99917690 (Seq. ID No. 65)
1.84: peptide 99907807 (Seq. ID No. 18)
1: peptide 99900220 (Seq. ID No. 1) | peptide 99900467 (Seq. ID No. 2) | peptide 99901399 (Seq. ID No. 3) | peptide 99902592 (Seq. ID No. 4) | peptide 99903025 (Seq. ID No. 5) | peptide 99904666 (Seq. ID No. 7) | peptide 99904862 (Seq. ID No. 8) | peptide 99905044 (Seq. ID No. 9) | peptide 99905259 (Seq. ID No. 10) | peptide 99905379 (Seq. ID No. 12) | peptide 99905423 (Seq. ID No. 13) | peptide 99905509 (Seq. ID No. 14) | peptide 99905551 (Seq. ID No. 15) | peptide 99906176 (Seq. ID No. 16) | peptide 99907275 (Seq. ID No. 17) | peptide 99908755 (Seq. ID No. 19) | peptide 99908795 (Seq. ID No. 20) | peptide 99908916 (Seq. ID No. 21) | peptide 99909059 (Seq. ID No. 22) | peptide 99910002 (Seq. ID No. 23) | peptide 99910032 (Seq. ID No. 24) | peptide 99910407 (Seq. ID No. 25) | peptide 99910483 (Seq. ID No. 26) | peptide 99910554 (Seq. ID No. 27) | peptide 99911002 (Seq. ID No. 29) | peptide 99911193 (Seq. ID No. 30) | peptide 99911415 (Seq. ID No. 31) | peptide 99911777 (Seq. ID No. 33) | peptide 99912101 (Seq. ID No. 34) | peptide 99912211 (Seq. ID No. 35) | peptide 99912366 (Seq. ID No. 36) | peptide 99912411 (Seq. ID No. 37) | peptide 99912661 (Seq. ID No. 38) | peptide 99913200 (Seq. ID No. 39) | peptide 99913825 (Seq. ID No. 41) | peptide 99914211 (Seq. ID No. 42) | peptide 99914876 (Seq. ID No. 44) | peptide 99914887 (Seq. ID No. 45) | peptide 99914893 (Seq. ID No. 46) | peptide 99915015 (Seq. ID No. 48) | peptide 99915755 (Seq. ID No. 49) | peptide 99915778 (Seq. ID No. 50) | peptide 99915883 (Seq. ID No. 51) | peptide 99916170 (Seq. ID No. 52) | peptide 99916177 (Seq. ID No. 53) | peptide 99916966 (Seq. ID No. 56) | peptide 99917047 (Seq. ID No. 57) | peptide 99917221 (Seq. ID No. 58) | peptide 99917280 (Seq. ID No. 59) | peptide 99917288 (Seq. ID No. 60) | peptide 99917419 (Seq. ID No. 61) | peptide 99917505 (Seq. ID No. 62) | peptide 99917596 (Seq. ID No. 63) | peptide 99917626 (Seq. ID No. 64) | peptide 99917890 (Seq. ID No. 67) | peptide 99917947 (Seq. ID No. 68) | peptide 99918831 (Seq. ID No. 69) | peptide 99918906 (Seq. ID No. 70) | peptide 99918909 (Seq. ID No. 71)
1.86: peptide 99905274 (Seq. ID No. 11) | peptide 99913322 (Seq. ID No. 40)
1.71: peptide 99910883 (Seq. ID No. 28)
0.83: peptide 99916615 (Seq. ID No. 55)
2.01: peptide 99917825 (Seq. ID No. 66)
1.22: peptide 99904405 (Seq. ID No. 6)
0.79: peptide 99916611 (Seq. ID No. 54)
1.55: peptide 99914935 (Seq. ID No. 47)
